Data as given in patent US11053204B2, “Pyrimidinyloxy benzene derivatives as herbicides” (FMC Corporation, priority 2015, dated 2021).

What was measured:
Experiment in all cases: Test A postemergence, visual injury rating
Type in all cases: in vivo
Conditions in all cases: 0 is no effect, 100 is complete control
[1] = tested on: Italian ryegrass (Lolium multiflorum)
Method in brief: (§1)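 Injury scores run from 0, no effect, to 100, complete control, judged by eye against untreated plants roughly 10 days after treatment. Chemicals carried a surfactant in a non-phytotoxic solvent and went onto loam–sand soil preemergence or onto one- to two-leaf seedlings postemergence.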

[2] = tested on: barnyardgrass (Echinochloa crus-galli)
Method in brief: as §1

[3] = tested on: blackgrass (Alopecurus myosuroides)
Method in brief: as §1

[4] = tested on: corn (Zea mays)
Method in brief: as §1

[5] = tested on: galium (catchweed bedstraw, Galium aparine)
Method in brief: as §1

[6] = tested on: giant foxtail (Setaria faberii)
Method in brief: as §1

[7] = tested on: kochia (Kochia scoparia)
Method in brief: as §1

[8] = tested on: pigweed (Amaranthus retroflexus)
Method in brief: as §1

[9] = tested on: ragweed (common ragweed, Ambrosia elatior)
Method in brief: as §1

[10] = tested on: wheat (Triticum aestivum)
Method in brief: as §1

SMILES | Ryegrass, Italian plant response rating (0 to 100 scale) ([1]; 125 g ai/ha) | Ryegrass, Italian plant response rating (0 to 100 scale) ([1]; 500 g ai/ha) | Barnyardgrass plant response rating (0 to 100 scale) ([2]; 125 g ai/ha) | Barnyardgrass plant response rating (0 to 100 scale) ([2]; 500 g ai/ha) | Blackgrass plant response rating (0 to 100 scale) ([3]; 125 g ai/ha) | Blackgrass plant response rating (0 to 100 scale) ([3]; 500 g ai/ha) | Corn plant response rating (0 to 100 scale) ([4]; 125 g ai/ha) | Corn plant response rating (0 to 100 scale) ([4]; 500 g ai/ha) | Galium plant response rating (0 to 100 scale) ([5]; 125 g ai/ha) | Galium plant response rating (0 to 100 scale) ([5]; 500 g ai/ha) | Foxtail, Giant plant response rating (0 to 100 scale) ([6]; 125 g ai/ha) | Foxtail, Giant plant response rating (0 to 100 scale) ([6]; 500 g ai/ha) | Kochia plant response rating (0 to 100 scale) ([7]; 125 g ai/ha) | Kochia plant response rating (0 to 100 scale) ([7]; 500 g ai/ha) | Pigweed plant response rating (0 to 100 scale) ([8]; 125 g ai/ha) | Pigweed plant response rating (0 to 100 scale) ([8]; 500 g ai/ha) | Ragweed plant response rating (0 to 100 scale) ([9]; 125 g ai/ha) | Ragweed plant response rating (0 to 100 scale) ([9]; 500 g ai/ha) | Wheat plant response rating (0 to 100 scale) ([10]; 125 g ai/ha) | Wheat plant response rating (0 to 100 scale) ([10]; 500 g ai/ha)
N#Cc1cccc(Oc2ncc(Cl)cn2)c1C(=O)OCCC(F)(F)F [Compound 30] | 0 | 0 | 0 | 20 | 10 | 30 | 30 | 70 | 60 | 100 | 60 | 100 | 100 | 100 | 100 | 100 | 0 | 0 | 0 | 30
C=C(Br)COC(=O)c1c(Br)cccc1Oc1ncc(Cl)cn1 [Compound 61] | 20 | 80 | 100 | 100 | 30 | 100 | 20 | 40 | 60 | 100 | 60 | 100 |  |  | 40 | 100 | 10 | 30 | 0 | 30
